Tests used:
GHSR1a [1] = biological target: T1, GHSR1a (Homo sapiens, UniProt Q92847); assay: Calcium FLIPR assay, GHSR-1a antagonism (reduction of ghrelin response); format: cell-based; conditions: HEK293/GHSR1a cells, ghrelin 10 nM
T1 construct: expressed in transfected cells; host or cells: HEK293
Method in brief: (§1)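 Calcium dye-loaded HEK293/GHSR1a cells were monitored by FLIPR fluorescence for 2 min after additions at t=20 s. For antagonist mode, compound was co-added with ghrelin (10 nM) and scored by lowering the ghrelin signal. Agonist mode added compound alone; EC50 and IC50 came from dose-response data.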

GHSR1a [2] = biological target: T1, GHSR1a; assay: Calcium FLIPR assay, GHSR-1a agonism; format: cell-based; set-up: Emax: unit not given here; conditions: HEK293/GHSR1a cells
Method in brief: as §1

T1 sequence (Q92847 whole entry): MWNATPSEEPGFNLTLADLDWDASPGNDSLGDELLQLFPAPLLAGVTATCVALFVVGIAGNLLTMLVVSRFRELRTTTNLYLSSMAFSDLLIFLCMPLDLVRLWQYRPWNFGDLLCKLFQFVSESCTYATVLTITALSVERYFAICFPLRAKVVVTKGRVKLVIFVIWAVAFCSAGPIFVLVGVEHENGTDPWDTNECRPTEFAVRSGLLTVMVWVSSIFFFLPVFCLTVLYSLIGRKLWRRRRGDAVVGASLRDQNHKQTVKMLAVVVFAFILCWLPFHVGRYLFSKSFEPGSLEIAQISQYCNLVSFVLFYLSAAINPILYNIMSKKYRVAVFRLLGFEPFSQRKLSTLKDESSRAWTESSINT

IC50 (GHSR1a [1])	EC50 (GHSR1a [2])	Emax (GHSR1a [2])	SMILES
0.009 µM	0.009 µM	4662	CC(NC(=O)N(C)C1CCN(C)CC1)c1ccc(-c2cnc(C(=O)N(C)C)cn2)c(Cl)c1Cl (stereo not drawn) [Compound H0771, 5-(2,3-dichloro-4-(1-(3-methyl-3-(1-methylpiperidin-4-yl)ureido)ethyl)phenyl)-N,N-dimethylpyrazine-2-carboxamide]
0.091 µM	0.05 µM	3751	CC(NC(=O)N(C)C1CCN(C)CC1)c1ccc(OC2CC2)c(Cl)c1Cl (stereo not drawn) [Compound H0875, 3-(1-(2,3-dichloro-4-cyclopropoxyphenyl)ethyl)-1-methyl-1-(1-methylpiperidin-4-yl)urea]
0.279 µM	> 30 µM		CC(NC(=O)N(C)C1CCN(C)CC1)c1ccc(-c2ccncn2)c(Cl)c1Cl (stereo not drawn) [Compound H0768, 3-(1-(2,3-dichloro-4-(pyrimidin-4-yl)phenyl)ethyl)-1-methyl-1-(1-methylpiperidin-4-yl)urea]
0.274 µM	> 30 µM		COc1ncc(-c2ccc(C(C)NC(=O)N(C)C3CCN(C)CC3)c(Cl)c2Cl)c(OC)n1 (stereo not drawn) [Compound H0663, 3-(1-(2,3-dichloro-4-(2,4-dimethoxypyrimidin-5-yl)phenyl)ethyl)-1-methyl-1-(1-methylpiperidin-4-yl)urea]
0.13 µM	> 30 µM		CC(NC(=O)N(C)C1CCN(C)CC1)c1cnc(Cl)c(Cl)c1Cl (stereo not drawn) [Compound H0876, 1-methyl-1-(1-methylpiperidin-4-yl)-3-(1-(4,5,6-trichloropyridin-3-yl)ethyl)urea]
0.39 µM	0.353 µM	200	COc1ccc(C(NC(=O)N(C)C2CCN(C)CC2)C(N)=O)c(Cl)c1Br (stereo not drawn) [Compound H0659, 2-(3-bromo-2-chloro-4-methoxyphenyl)-2-(3-methyl-3-(1-methylpiperidin-4-yl)ureido)acetamide]
0.696 µM	> 30 µM		COc1cncc(-c2ccc(C(C)NC(=O)N(C)C3CCN(C)CC3)c(Cl)c2Cl)n1 (stereo not drawn) [Compound H0738, 3-(1-(2,3-dichloro-4-(6-methoxypyrazin-2-yl)phenyl)ethyl)-1-methyl-1-(1-methylpiperidin-4-yl)urea]
0.133 µM	0.287 µM	2761	CC(NC(=O)N(C)C1CCN(C)CC1)c1ccc(C2OCCO2)c(Cl)c1Cl (stereo not drawn) [Compound H0645, 3-(1-(2,3-dichloro-4-(1,3-dioxolan-2-yl)phenyl)ethyl)-1-methyl-1-(1-methylpiperidin-4-yl)urea]
0.04 µM	0.13 µM		CC(NC(=O)N(C)C1CCN(C)CC1)c1ccc(-c2ccc(F)nc2)c(Cl)c1Cl (stereo not drawn) [Compound H0618, 3-(1-(2,3-dichloro-4-(6-fluoropyridin-3-yl)phenyl)ethyl)-1-methyl-1-(1-methylpiperidin-4-yl)urea]
0.075 µM	> 30 µM		CC(NC(=O)N(C)C1CCN(C)CC1)c1ccc(-c2cncc(Cl)n2)c(Cl)c1Cl (stereo not drawn) [Compound H0791, 3-(1-(2,3-dichloro-4-(6-chloropyrazin-2-yl)phenyl)ethyl)-1-methyl-1-(1-methylpiperidin-4-yl)urea]
0.095 µM	0.42 µM	4210	CN1CCC(N(O)C(=O)NC(CC2CC2)c2ccc(-c3cnccn3)c(Cl)c2Cl)CC1 (single isomer, unassigned) [Compound H0781, 3-(2-cyclopropyl-1-(2,3-dichloro-4-(pyrazin-2-yl)phenyl)ethyl)-1-hydroxy-1-(1-methylpiperidin-4-yl)urea]
1.85 µM	> 30 µM		CC(NC(=O)N(C)C1CCN(C)CC1)c1ccc(-c2cncc(-c3c[nH]cn3)c2)c(Cl)c1Cl (stereo not drawn) [Compound H0711, 3-(1-(4-(5-(1H-imidazol-4-yl)pyridin-3-yl)-2,3-dichlorophenyl)ethyl)-1-methyl-1-(1-methylpiperidin-4-yl)urea]
3.6 µM	> 30 µM		CN1CCC(N(C)C(=O)NC2(c3ccc(-c4cncnc4)c(Cl)c3Cl)CCOCC2)CC1 [Compound H0727, 3-(4-(2,3-dichloro-4-(pyrimidin-5-yl)phenyl)tetrahydro-2H-pyran-4-yl)-1-methyl-1-(1-methylpiperidin-4-yl)urea]
0.541 µM	> 30 µM		CC(NC(=O)N(C)C1CCN(C)CC1)c1ccc(-c2cncc(/C=N/O)c2)c(Cl)c1Cl (stereo not drawn) [Compound H0646, (E)-3-(1-(2,3-dichloro-4-(5-((hydroxyimino)methyl)pyridin-3-yl)phenyl)ethyl)-1-methyl-1-(1-methylpiperidin-4-yl)urea]
0.159 µM	0.654 µM	2704	CCOC(C#Cc1ccc(C(C)NC(=O)N(C)C2CCN(C)CC2)c(Cl)c1Cl)OCC (stereo not drawn) [Compound H0757, 3-(1-(2,3-dichloro-4-(3,3-diethoxyprop-1-yn-1-yl)phenyl)ethyl)-1-methyl-1-(1-methylpiperidin-4-yl)urea]
0.1 µM	0.095 µM	2818	CC(NC(=O)N(C)C1CCN(C)CC1)c1ccc(-c2cccnn2)c(Cl)c1Cl (stereo not drawn) [Compound H0729, 3-(1-(2,3-dichloro-4-(pyridazin-3-yl)phenyl)ethyl)-1-methyl-1-(1-methylpiperidin-4-yl)urea]
0.681 µM	0.03 µM		CC(NC(=O)N(C)C1CCN(C)CC1)c1ccc(-c2ccnnc2)c(Cl)c1Cl (stereo not drawn) [Compound H0783, 3-(1-(2,3-dichloro-4-(pyridazin-4-yl)phenyl)ethyl)-1-methyl-1-(1-methylpiperidin-4-yl)urea]
0.069 µM	0.18 µM	2100	COC(=O)C(NC(=O)N(C)C1CCN(C)CC1)c1ccc(-c2cccs2)c(Cl)c1Cl (stereo not drawn) [Compound H0660, methyl 2-(2,3-dichloro-4-(thiophen-2-yl)phenyl)-2-(3-methyl-3-(1-methylpiperidin-4-yl)ureido)acetate]
0.339 µM	> 30 µM		CC(NC(=O)N(C)C1CCN(C)CC1)c1ccc(-c2cnccn2)c(Cl)c1F (stereo not drawn) [Compound H0856, 3-(1-(3-chloro-2-fluoro-4-(pyrazin-2-yl)phenyl)ethyl)-1-methyl-1-(1-methylpiperidin-4-yl)urea]
0.177 µM	> 30 µM		CCON(C(=O)NC(C)c1ccc(-c2cnccn2)c(Cl)c1Cl)C1CCN(C)CC1 (stereo not drawn) [Compound H0750, 3-(1-(2,3-dichloro-4-(pyrazin-2-yl)phenyl)ethyl)-1-ethoxy-1-(1-methylpiperidin-4-yl)urea]
0.644 µM	0.528 µM	1605	CC(NC(=O)N(C)C1CCN(C)CC1)c1ccc(-c2cnc(N3CCCC3)nc2)c(Cl)c1Cl (stereo not drawn) [Compound H0813]
6.2 µM	> 30 µM		CC(NC(=O)N(C)C1CCN(C)CC1)c1ccc(-c2cnc(C(N)=O)cn2)c(Cl)c1Cl (stereo not drawn) [Compound H0760]
> 1 µM	> 30 µM		CC(NC(=O)N(C)C1CCN(C)CC1)c1ccc(-c2ccc(C(=O)O)s2)c(Cl)c1Cl (stereo not drawn) [Compound H0689, 5-(2,3-dichloro-4-(1-(3-methyl-3-(1-methylpiperidin-4-yl)ureido)ethyl)phenyl)thiophene-2-carboxylic acid]
0.517 µM	> 30 µM		CC(NC(=O)N(C)C1CCN(C)CC1)c1ccc(C#Cc2ccccc2)c(Cl)c1Cl (stereo not drawn) [Compound H0609, 3-(1-(2,3-dichloro-4-(phenylethynyl)phenyl)ethyl)-1-methyl-1-(1-methylpiperidin-4-yl)urea]
